Like-named read-outs stand apart in the source and are kept apart here.
What was measured:
[1] = tested on: β2 -stimulation, lungs guinea pig; assay: Bronchospasmolytic effect (β2 -stimulation), Konzett-Rossler technique in anaesthetized guinea pig lungs; type: in vivo; settings: Cavia porcellus, doses as free base of the racemic compound
[2] = tested on: β1 -stimulation, heart rate mice; assay: Heart rate increasing effect (β1 -stimulation) in pentobarbital anaesthetized mice; type: in vivo; settings: Mus musculus, iv, dose giving an increase in heart rate of 100 beats/min, as free base
Method: An especially valuable feature of the present invention is that typical and preferred representative of the compounds of the invention show a high bronchial selectivity (ratio of bronchospasmolytic activity to heart rate increasing effect) as compared to existing well-known broncholytics. […] The ratio, heart rate increasing dose ("ED 100") divided by bronchospasmolytic dose (ED 50), is a measure of the degree of selectivity of the bronchospasmolytic action. This ratio was calculated for a number of the compounds of the invention and for some of the most relevant compounds of reference.

[3] = tested on: β2 -stimulation versus β1 -stimulation; assay: Bronchial selectivity: heart rate increasing dose ("ED 100") divided by bronchospasmolytic dose (ED 50); type: in vivo; settings: heart rate ED 100 (mice, i.v.) / bronchospasmolytic ED 50 (guinea pig, i.v.)
Method: The ratio, heart rate increasing dose ("ED 100") divided by bronchospasmolytic dose (ED 50), is a measure of the degree of selectivity of the bronchospasmolytic action. This ratio was calculated for a number of the compounds of the invention and for some of the most relevant compounds of reference.

[4] = tested on: conscious guinea pigs; assay: Bronchospasmolytic dose in conscious guinea pigs, acetylcholine aerosol as spasmogen (Wardell); type: in vivo; settings: pressurized aerosol of 1% acetylcholine, more active than salbutamol
Method: (§1) The effective bronchospasmolytic doses of the two compounds were determined using a pressurized aerosol of a 1% acetylcholine solution as the spasmogen according to the method of […]. Pharmacol Exp. Therap. 1974, 189, 167-184 and the heart rate was determined according to Farmer et al. (Br. J. Pharmac. Chemotherap. 1968, 32, 193-200.

[5] = tested on: conscious guinea pigs; assay: Heart rate in conscious guinea pigs (Farmer et al.); type: in vivo
Method: as §1

[6] = tested on: β-stimulation of the skeletal muscles; assay: Tremor-inducing activity (β-stimulation of the skeletal muscles) compared to bronchospasmolytic activity in cats (Bowman and Nott); type: in vivo
Method: For a few of the compounds of the invention, the tremor-inducing activity (β-stimulation of the skeletal muscles) was determined in cats (in accordance with the technique of Bowman, W. C. and Nott, M. W.: Actions of some sympathomimetic bronchodilator and beta-adrenoceptor blocking drugs on contractions of the cat soleus muscle, Brit. J. Pharmac., 1970, 38, 37-49) and compared to the bronchospasmolytic activity in the same species.

[7] = tested on: dogs; settings: dog, in vivo
From the text: (§2) Compounds of the present invention are well tolerated, as appears from the table.

[8] = design: species or system rate; settings: in vivo
From the text: as §2

[9] = in vivo; settings: mouse
From the text: Furthermore the acute toxicity in mice after intraveneous and oral administration is given.

## COc1ccc(CNc2cc(C(O)CNC(C)(C)C)ccc2O)cc1.Cl (stereo not drawn) [3-(4-Methoxybenzylamino)-4-hydroxy-α-(tert.butylaminomethyl)-benzylalcohol hydrochloride]
[1]; i.d. = intraduodenally, read-out: β2 -stimulation lungs guinea pig ED 50 i.d.
  ED50: 1 mg/kg
[1]; iv, read-out: β2 -stimulation lungs guinea pig ED 50 i.v.
  ED50: 0.003 mg/kg
[2]
  ED (increase of 100 beats/min): 0.1 mg/kg
[3]
  Ratio "ED 100"/ED 50: 33
[4]
  broncholytic activity relative to salbutamol: 10 times
[5]
  heart rate stimulating effect compared with salbutamol: the heart rate stimulating effect was the same
[6]
  ratio between bronchospasmolytic dose and tremor-inducing dose, compared with salbutamol: a better ratio than salbutamol
[7]
  acute intravenous and oral toxicity test: tolerability: good tolerability
  two week tolerance test in dogs: tolerability: good tolerability
[8]
  three month toxicity test: toxic reactions: no toxic reactions
[9]; iv
  LD50: 20 mg/kg
[9]; po
  LD50: 300 mg/kg

— US4072760A, “Bronchospasmolytic phenylethanolamines” (Pharmacia AS, priority 1974, dated 1978)
